The subject of assay [1] is fluorescent reporter PFF cell line. As to the kind of experiment: Small molecules: effect on PE editing efficiency in fluorescent reporter PFF cell line. In kind it is cell-based, pig. To be noted: 20 μM RS-1, 200 ng/mL Nocodazole, FIG. 18A; for PE efficiency: single molecule added to medium after transfection: 40 μM L755507, 0.1 μM Brefeldin A, 10 nM TSA; for increase of editing efficiency: single molecule: 10 nM TSA. The protocol: From this, it can be expected that some small molecules may also improve the editing efficiency of PE. […] Cells were treated by adding the corresponding concentrations of small molecules or combinations of small molecules, respectively, to the medium after transfection.

The next assay deals with primary PFFs. Put plainly: Small molecules: effect on PE editing efficiency in primary PFFs. In kind it is cell-based, pig. To be noted: primary PFF; FIG. 18C. The procedure: Cells were treated by adding the corresponding concentrations of small molecules or combinations of small molecules, respectively, to the medium after transfection.
The effect of Rs-1, Nocodazole, TSA, and the combination of Rs-1+TSA and Rs-1+Nocodazole in primary PFFs was then verified.

For a further assay, the system named is primary PFF cells. As to the kind of experiment: Editing efficiency of PE editors in primary PFF cells (high throughput sequencing of target sites). Format: cell-based, pig. The procedure:
The sows for 31 days gestation were sacrificed and dissected, the whole uterus was taken out, the fetus and the fetal membrane were taken out one by one, and transferred into a DMEM solution containing 5% (v/v) penicillin and streptomycin (v/v; Gibco: 15140-122) for storage in a refrigerator at 4° C. In a clean bench, the isolated fetus was transferred one by one to a sterile 10 cm culture dish, and the head, viscera, limbs and tail of the fetus were removed with sterile forceps and scissors; the remaining part of the fetus was cleaned with a PBS solution containing 5% (v/v) penicillin and streptomycin (Gibco: 15140-122)), and then the remaining part of the fetus was cut to about 1 mm^3 within 10-15 minutes, and 5 ml of collagenase working solution was added to the cut tissue; the tip of 1 ml of sterile pipettor was cut off with scissors, and the cut tissue pieces were transferred to a 15 ml sterile centrifuge tube, sealed and placed in a shaker at 37° C. for incubation for 2 hours. After that, the centrifuge tube was centrifuged at 1000 rpm for 5 minutes, the upper collagenase working solution was removed, and the incubated tissues were evenly transferred into two T75 culture dishes and cultured in a 37° C., 5% CO2 sterile incubator. […]

The test system of a further assay is HEK293T cells. As to the kind of experiment: Editing efficiency of PE editors in 293T cells (puromycin screening, sequencing). Format: cell-based. To be noted: pPE editors with 4 point mutations, FIG. 9. The protocol: (§1) Canine fetal fibroblasts (DFF) were isolated from a female canine fetus on 30 days of gestation, and the specific establishment method was the same as that of PFF; goat fetal fibroblasts (SFF) were given by Yunnan Agriculture University Weijiang Laboratory, and the cells were isolated from a small tailed han sheep fetus; 293T cells were purchased from the Cell Bank of the Type Culture Collection Committee of Chinese Academy. All three cells were cultured in high-glucose DMEM (Gibco, USA) culture medium containing 12% (v/v) fetal bovine serum (Excell, China) and 1% (v/v) penicillin-streptomycin (BI, China) at 37° C. in a 5% CO2 incubator.
293T cells: cells were inoculated into a 24-well culture dish 1-2 days before cell transfection, and when the cell confluency reached 50-60%, the cells were transfected with Lipofectamine 3000 reagent (Invitrogen, USA), and each transfection reaction included 1 μg PE editor, 0.5 μg pegRNA, 0.5 μg ngRNA and 1 μL Lipofectamine 3000 reagent.
293T cells: after transfection, 3 μg/mL puromycin (Sigma, Japan) was added for screening for 3 days, and then the culture medium was changed and cultured for another 2 days.
(§2) The method is same with the detection of editing efficiency of PFF.

Assay [2] deals with dog fetal fibroblasts (DFF). Put plainly: Editing efficiency of PE editors in dog fetal fibroblasts. To be noted: pPE editors with 4 point mutations; canine fetal fibroblasts; FIG. 9. In kind it is cell-based. The protocol:
as §1
(§3) DFF and SFF: The method is similar to the transfection method of PFF, and the difference lies in that when DFF and SFF were transformed, the cells were shocked by using the EN-150 program, then again by using the CA-113 program.
(§4) SFF and DFF cells: 3 μg/mL puromycin (Sigma, Japan) was added 48 hours after electrotransformation for screening for 2 days, and then the culture medium was changed for further culture for 2 days.
as §2

The test system of assay [3] is sheep fetal fibroblasts (SFF). Put plainly: Editing efficiency of PE editors in sheep fetal fibroblasts. To be noted: pPE editors with 4 point mutations; FIG. 9. Format: cell-based. The procedure:
as §1, §3, §4, §2

Assay [4] deals with immortalized BFP fluorescence reporter PFF cell line. As to the kind of experiment: Editing efficiency of PE editors in immortalized BFP fluorescence reporter PFF cell line (flow cytometry, GFP ratio). In kind it is cell-based, Bama pig. To be noted: epPE editors vs PE2c-Puro and each other, FIG. 3. The procedure:
The immortalized BFP fluorescence reporter PFF cell line was cultured in high glucose DMEM (Gibco, USA) medium containing 12% fetal bovine serum ((v/v), Excell, China) and 1% penicillin ((v/v), BI, China). The cell line was constructed by the laboratory, firstly, the SV40 large T antigen was site-directed knocked into the H11 safe harbor site of the primary PFFs of Bama pig, and then the BFP vector was site-directed integrated into the Rosa26 safe harbor site of immortalized PFF by the CRISPR Cas9 technology, and finally the BFP fluorescence reporter PFF cell line was obtained by serial passage. […]
After the cells were digested with 0.125% trypsin (Gibco, USA), the cells were collected into a 1.5 mL EP tube, centrifuged at 200×g for 5 minutes, the supernatant was discarded, 50 μL of 1×PBS buffer was added to resuspend the cells, and the cells were detected by using a flow cytometer (BD, USA), the wild-type fluorescence reporter cells were used as the background, and GFP-positive cells were circled by using two channels of FITC+PE, and the GFP ratio was the editing efficiency.

Assay [5] concerns 293T cells co-transfected with fluorescent reporter gene vector. As to the kind of experiment: 293T cell fluorescence reporter gene co-transfection experiment. To be noted: Bmx-PERV-RT with 6 mutation sites and combinations; 3 editing forms; FIG. 12. Format: cell-based. The procedure:
1×10^5 cells were inoculated into a 24-well culture dish 17-24 hours before cell transfection, and when the cell confluence reached 50-80%, transfection was performed using H4000 reagent (Ingran, China), and each transfection reaction included 200 ng PE editor, 100 ng pegRNA, 100 ng ngRNA, 10 ng fluorescent reporter gene vector and 0.5 μL H4000 reagent. The cells were collected 48 hours after transfection, and detected by flow cytometry (BD, USA), with wild-type fluorescence reporter cells as background, and GFP positive cells were circled with FITC+PE double channel, with GFP ratio as editing efficiency.

As for `CC(/C=C/C(=O)NO)=C\[C@@H](C)C(=O)c1ccc(N(C)C)cc1` [TSA, Trichostatin A], in assay [1], the PE efficiency result is reported as “significantly (P<0.05 or P<0.01) improved PE efficiency” and the “increase of editing efficiency” value is recorded as 34.4%. In addition, the “improvement of overall editing efficiency for the 6 sites” value (“improvement” for short) with primary PFFs is reported as 14.3%.

In the case of `CCCCCCNC(=O)Nc1ccc(S(=O)(=O)Nc2ccc(CCNC[C@H](O)COc3ccc(O)cc3)cc2)cc1` [L755507], the PE efficiency entry in assay [1] is “significantly (P<0.05 or P<0.01) improved PE efficiency”.

“bmx-pPE-C-M4-puro: pPE editor, Bama pig type C PERV-RT with D199N, T305K, W312F, L602W; SEQ ID NO: 31”: the editing efficiency result in the assay with primary PFF cells (pPE editors with 4 point mutations in PFF, FIG. 8) was “overall higher efficiency”; in the assay with HEK293T cells it was “higher efficiency at most sites”; in assay [2], “higher efficiency at most sites”; in assay [3], “higher efficiency at most sites”.

Regarding `C[C@H]1CCC/C=C/[C@@H]2C[C@H](O)C[C@H]2[C@H](O)/C=C/C(=O)O1` [BrefeldinA, Brefeldin A], the PE efficiency entry in assay [1] was “significantly (P<0.05 or P<0.01) improved PE efficiency”.

For `COC(=O)Nc1nc2ccc(C(=O)c3cccs3)cc2[nH]1` [Nocodazole], in assay [1], the PE efficiency entry was “significantly (P<0.05 or P<0.01) improved PE efficiency” and the “increase of editing efficiency” value turned out to be 66.9%. The “improvement” value with primary PFFs is on record as 36.4%.

In the case of `O=C(Nc1ccc(Br)cc1)c1ccc(Br)c(S(=O)(=O)NCc2ccccc2)c1` [Rs-1], in assay [1], the PE efficiency result was “significantly (P<0.05 or P<0.01) improved PE efficiency” and the “increase of editing efficiency” value is 32.7%. The “improvement” value in the assay on primary PFFs was determined as 20.8%.

“epPE-AC-M4Δ*-Puro: epPE-AC-M3Δ-Puro with RT amino acids 329-332 mutated from EKGE to PGTL; SEQ ID NO: 23”: the “editing efficiency (GFP ratio)” value in assay [4] is reported as “higher than that of epPE-B-M4Δ*-Puro”.

Regarding “M5.1: pPE editor, PERV-RT variant carrying 5 amino acid mutations (D199N, T305K, W312F, L602W, V222A); SEQ ID NO: 45”, the “efficiency (GFP ratio)” value in assay [5] was “overall optimal efficiency in 3 editing forms”.

For “epPE-AC-M3Δ-Puro: PE editor: nCas9 fused to PERV-AC-NC and PERV-AC-RT (ΔRNase H) with D199N, T305K, W312F; SEQ ID NO: 22”, the “editing efficiency (GFP ratio)” value in assay [4] is listed as “higher than that of epPE-B-M3Δ-Puro”. In addition, in the assay on primary PFF cells (6 editing sites tested in the primary PFF, FIG. 4), the average editing efficiency entry was “higher than that of epPE-B-M3Δ-Puro”.

Source of the values: US20260275307A1, “PRIME EDITING SYSTEM BASED ON PERV REVERSE TRANSCRIPTASE” (Jiangxi Agricultural University, priority 2023, published 2026).
